One experiment addresses T1, PRMT7 (Homo sapiens, UniProt Q9NVM4).
T1 sequence (Q9NVM4 1-692): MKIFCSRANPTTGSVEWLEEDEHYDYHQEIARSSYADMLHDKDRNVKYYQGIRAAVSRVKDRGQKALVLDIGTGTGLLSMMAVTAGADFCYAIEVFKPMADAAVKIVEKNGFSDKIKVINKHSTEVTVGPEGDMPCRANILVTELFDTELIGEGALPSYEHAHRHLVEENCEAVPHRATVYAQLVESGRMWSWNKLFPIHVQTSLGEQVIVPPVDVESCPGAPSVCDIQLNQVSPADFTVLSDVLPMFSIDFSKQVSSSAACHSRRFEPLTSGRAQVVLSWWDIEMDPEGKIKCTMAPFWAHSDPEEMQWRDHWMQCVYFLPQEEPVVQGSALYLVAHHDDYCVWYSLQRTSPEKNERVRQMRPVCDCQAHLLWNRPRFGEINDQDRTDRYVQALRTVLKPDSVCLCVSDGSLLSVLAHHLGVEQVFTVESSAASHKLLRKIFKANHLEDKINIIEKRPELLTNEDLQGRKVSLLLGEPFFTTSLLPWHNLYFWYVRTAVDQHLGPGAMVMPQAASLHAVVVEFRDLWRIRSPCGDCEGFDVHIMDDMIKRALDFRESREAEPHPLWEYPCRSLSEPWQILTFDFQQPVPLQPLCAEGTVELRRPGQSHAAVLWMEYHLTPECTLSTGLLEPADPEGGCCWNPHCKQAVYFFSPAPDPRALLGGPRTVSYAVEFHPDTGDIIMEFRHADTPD
Nature of the experiment: SPR kinetics (Biacore T200); also radiometric SPA IC50 […]. In kind it is binding. On the set-up: Bio-PRMT7 (amino acids 1–692).

In a further experiment the target is PRMT5-MEP50 (Homo sapiens, UniProt O14744). Nature of the experiment: biochemical. On the set-up: radiometric methyltransferase assay with tritiated SAM, IC50. As to the method: (§1) The methyltransferase selectivity was assessed at two compound concentrations of 1 and 10 μM by radiometric assays using tritiated-SAM. For methyltransferases: MLL1, MLL3, EZH1 (PRC2), and EZH2 (PRC2), G9a, GLP, SUV39H1, SUV39H2, SUV420H1, SUV420H2, SETD2, SETD8, SETDB1, SETD7, PRMT1, PRMT3, PRMT4, PRMT5/ MEP50 complex, PRMT6, PRMT7, PRMT8, PRMT9, PRDM9, SMYD2, SMYD3, DNMT1, and BCDIN3D the incorporation of a tritium-labeled methyl group into biotinylated substrate was monitored using scintillation proximity assay (SPA). Briefly, a 10 μL reaction containing ^3H-SAM and substrate at concentrations close to the apparent Km values for each enzyme (balanced conditions) was prepared. The reactions were quenched with 10 μL of 7.5 M guanidine hydrochloride; 180 μL of 20 mM Tris buffer (pH 8.0) were added, and the mixture was transferred to a 96-well FlashPlate and incubated for 1 h. The counts per minute (CPM) was measured on a TopCount plate reader. The CPM in the absence of compound or enzyme was defined as 100% activity and background (0%), respectively, for each dataset[74]–[76]. Selectivity of SGC8158 against 342 kinases was evaluated in a kinase panel TR-FRET assay at 1 and 0.1 μM compound in duplicates as described before. Briefly, tagged kinases were incubated with compound and staurosporine-based fluorescent probe where the binding was detected using Tb conjugated anti-tag antibody energy transfer to the probe. Excitation wavelength was 337 nm and fluorescent emission signal was measured for Tb (486 nm) and fluorescent probe (BODIPY, 515 nm). Specific and non-specific binding was determined in the absence and presence of unlabeled staurosporine. Assays using biotinylated H2B (23–37) as a substrate were performed in buffer (20 mM Tris–HCl, pH 8.5, 0.01% Tween-20, and 5 mM DTT) containing 5 nM PRMT7, 1.1 µM ^3H-SAM (Cat.# NET155V250UC; Perkin Elmer; www.perkinelmer.com) and 0.3 µM H2B (23–37). The reaction mixtures were incubated for 60 min at 23 °C. To stop the enzymatic reactions, 10 µL of 7.5 M guanidine hydrochloride was added, followed by 180 µL of buffer (20 mM Tris, pH 8.0), mixed and then transferred to a 96-well FlashPlate (Cat.# SMP103; Perkin Elmer; www.perkinelmer.com). After mixing, the reaction mixtures in Flash plates were incubated for 1 h and the CPM were measured using Topcount plate reader (Perkin Elmer, www.perkinelmer.com). The CPM counts in the absence of compound for each dataset were defined as 100% activity. In the absence of the enzyme, the CPM counts in each dataset were defined as background (0%). The IC50 values were determined using GraphPad Prism 7 software. For the kinetic analysis of HSPA8 methylation by PRMT7, the assay mixture contained 20 mM Tris–HCl, pH 8.5, 0.01% Tween-20, and 5 mM dithiothreitol (DTT), 1 mM MgCl2, 1 mM ATP where indicated, 250 nM PRMT7, fixed concentration (20 µM) of SAM, various concentrations (up to 40 µM) of HSPA8; or fixed concentration (10 µM) of HSPA8 with different concentrations of SAM (up to 20 µM). […] To determine the mode of action, the experiments were performed in the presence of fixed biotinylated H2B peptide (residues 23–37) or HSPA8 substrate concentration and increasing SAM concentration or at fixed concentration of SAM and varying concentration of the substrate. Twenty µL of reaction mixtures were incubated at 23 °C for 60 min. To stop reactions, 100 µL of 10% trichloroacetic acid (TCA) was added, mixed and transferred to filter-plates (Millipore; cat.# MSFBN6B10; www.millipore.com). Plates were centrifuged at 930 × g (Allegra X-15R—Beckman Coulter, Inc.) for 2 min followed by two additional 10% TCA washes and one ethanol wash followed by centrifugation. Plates were dried and 30 µL MicroScint-O (

In a further experiment the target is PRMT8 (Homo sapiens, UniProt Q9NR22). Nature of the experiment: biochemical. On the set-up: radiometric methyltransferase assay with tritiated SAM, IC50. As to the method:
as §1

The target in the next experiment is PRMT6 (Homo sapiens, UniProt Q96LA8). Nature of the experiment: biochemical. On the set-up: radiometric methyltransferase assay with tritiated SAM, IC50. As to the method:
as §1

In a further experiment the target is PRMT3 (Homo sapiens, UniProt O60678). Nature of the experiment: biochemical. On the set-up: radiometric methyltransferase assay with tritiated SAM, IC50. As to the method:
as §1

A further experiment has as its target PRMT1 (Homo sapiens, UniProt Q99873). Nature of the experiment: biochemical. On the set-up: radiometric methyltransferase assay with tritiated SAM, IC50. As to the method: as §1

Bounds are passed on as bounds.

The Kd is a measure of binding affinity in units of concentration. As a reminder, the IC50 is the midpoint of a concentration-inhibition curve.

Sequence of PRMT3 (O60678 whole entry): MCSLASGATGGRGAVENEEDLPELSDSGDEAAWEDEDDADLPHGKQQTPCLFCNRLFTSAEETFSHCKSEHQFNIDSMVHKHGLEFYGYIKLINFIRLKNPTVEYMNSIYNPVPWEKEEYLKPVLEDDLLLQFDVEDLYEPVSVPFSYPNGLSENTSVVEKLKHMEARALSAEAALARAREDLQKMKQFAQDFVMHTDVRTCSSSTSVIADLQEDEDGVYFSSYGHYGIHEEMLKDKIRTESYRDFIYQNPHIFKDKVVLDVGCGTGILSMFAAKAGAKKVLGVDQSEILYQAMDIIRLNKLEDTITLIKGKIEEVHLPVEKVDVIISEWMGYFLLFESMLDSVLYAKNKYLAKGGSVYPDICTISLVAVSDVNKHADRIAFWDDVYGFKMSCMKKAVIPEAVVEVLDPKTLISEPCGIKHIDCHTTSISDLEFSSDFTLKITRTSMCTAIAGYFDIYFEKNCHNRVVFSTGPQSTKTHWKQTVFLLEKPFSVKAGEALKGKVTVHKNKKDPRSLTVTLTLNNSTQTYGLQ
Sequence of PRMT8 (Q9NR22 whole entry): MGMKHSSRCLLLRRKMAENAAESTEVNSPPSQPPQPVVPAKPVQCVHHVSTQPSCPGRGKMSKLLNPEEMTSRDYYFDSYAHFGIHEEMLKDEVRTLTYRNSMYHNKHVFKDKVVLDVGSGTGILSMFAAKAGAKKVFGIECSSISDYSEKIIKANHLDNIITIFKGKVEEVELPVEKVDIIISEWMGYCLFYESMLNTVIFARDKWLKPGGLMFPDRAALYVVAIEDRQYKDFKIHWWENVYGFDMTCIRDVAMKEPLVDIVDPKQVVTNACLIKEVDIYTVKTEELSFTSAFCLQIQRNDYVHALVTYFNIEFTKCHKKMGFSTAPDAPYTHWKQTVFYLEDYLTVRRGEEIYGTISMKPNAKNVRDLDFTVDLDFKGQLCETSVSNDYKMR
Sequence of PRMT1 (Q99873 whole entry): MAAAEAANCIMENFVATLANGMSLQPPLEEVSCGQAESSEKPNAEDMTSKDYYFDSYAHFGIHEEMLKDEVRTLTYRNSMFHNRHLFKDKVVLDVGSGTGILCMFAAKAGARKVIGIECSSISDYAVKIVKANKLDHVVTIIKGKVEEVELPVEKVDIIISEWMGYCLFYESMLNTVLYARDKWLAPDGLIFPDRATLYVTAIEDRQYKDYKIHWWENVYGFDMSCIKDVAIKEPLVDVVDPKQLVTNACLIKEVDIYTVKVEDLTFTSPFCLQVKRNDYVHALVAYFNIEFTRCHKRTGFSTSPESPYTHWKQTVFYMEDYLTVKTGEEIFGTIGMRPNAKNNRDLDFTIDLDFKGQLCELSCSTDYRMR
Sequence of PRMT6 (Q96LA8 whole entry): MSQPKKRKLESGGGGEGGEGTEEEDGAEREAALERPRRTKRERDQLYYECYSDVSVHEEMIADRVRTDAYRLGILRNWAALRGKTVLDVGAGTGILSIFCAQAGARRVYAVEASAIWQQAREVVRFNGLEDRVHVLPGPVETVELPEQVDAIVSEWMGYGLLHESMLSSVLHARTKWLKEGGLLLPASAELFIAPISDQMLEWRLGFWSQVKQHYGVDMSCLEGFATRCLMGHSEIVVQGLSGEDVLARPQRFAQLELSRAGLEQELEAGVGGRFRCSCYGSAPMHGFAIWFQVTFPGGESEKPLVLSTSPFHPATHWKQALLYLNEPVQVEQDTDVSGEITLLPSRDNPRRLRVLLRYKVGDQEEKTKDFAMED
Sequence of PRMT5-MEP50 (O14744 whole entry): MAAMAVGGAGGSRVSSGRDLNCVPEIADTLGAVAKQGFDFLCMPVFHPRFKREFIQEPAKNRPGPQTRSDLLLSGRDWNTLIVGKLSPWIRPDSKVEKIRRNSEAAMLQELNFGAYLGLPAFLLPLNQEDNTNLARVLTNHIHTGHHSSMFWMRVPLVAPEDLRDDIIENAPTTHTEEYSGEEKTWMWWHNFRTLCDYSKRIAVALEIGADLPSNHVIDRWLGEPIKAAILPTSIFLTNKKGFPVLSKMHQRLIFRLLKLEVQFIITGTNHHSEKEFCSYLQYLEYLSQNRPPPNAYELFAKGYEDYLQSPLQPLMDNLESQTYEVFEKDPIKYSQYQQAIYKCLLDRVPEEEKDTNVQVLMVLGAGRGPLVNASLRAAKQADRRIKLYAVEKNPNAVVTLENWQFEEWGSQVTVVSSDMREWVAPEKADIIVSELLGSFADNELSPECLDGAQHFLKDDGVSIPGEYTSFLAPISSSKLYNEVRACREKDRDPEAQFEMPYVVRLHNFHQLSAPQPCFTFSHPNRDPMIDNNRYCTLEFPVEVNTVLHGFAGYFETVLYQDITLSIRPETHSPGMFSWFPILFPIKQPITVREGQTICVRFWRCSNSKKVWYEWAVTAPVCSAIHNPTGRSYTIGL
Sequence of PRMT5-MEP50 (Q9BQA1 whole entry partner): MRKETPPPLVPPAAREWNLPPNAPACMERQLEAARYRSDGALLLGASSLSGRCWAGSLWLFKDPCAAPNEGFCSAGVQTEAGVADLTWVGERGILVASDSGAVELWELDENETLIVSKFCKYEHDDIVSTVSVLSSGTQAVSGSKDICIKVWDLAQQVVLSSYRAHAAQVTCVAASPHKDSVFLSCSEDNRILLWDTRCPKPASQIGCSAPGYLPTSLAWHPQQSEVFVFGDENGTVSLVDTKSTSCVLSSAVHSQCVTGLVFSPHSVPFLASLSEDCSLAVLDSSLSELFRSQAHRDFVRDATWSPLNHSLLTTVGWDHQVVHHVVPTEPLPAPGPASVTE

In turn, `Nc1ncnc2c1ncn2[C@@H]1O[C@H](CSCCCCNCc2cccc(-c3ccc(Cl)cc3)c2)[C@@H](O)[C@H]1O` [SGC8158] yielded a Kd on PRMT7 of 0.0064 ± 0.0012 µM.

On to `Nc1ncnc2c1ncn2[C@@H]1O[C@H](CSCCCNCc2cccc(-c3ccc(Cl)cc3)c2)[C@@H](O)[C@H]1O` [SGC8172], for which the IC50 on PRMT5-MEP50 was 0.044 µM; on PRMT8 it was around 1.5 µM; at PRMT6, around 1.2 µM; on PRMT3, 0.269 µM; at PRMT1, above 5 µM.

These data come from article PMC7224190, “Pharmacological inhibition of PRMT7 links arginine monomethylation to the cellular stress response” (Nature Communications, 2020).
